Laboratory results: US20250122174A1 (Shenzhen Yuanli Shenwan Innovative Medicine Co., Ltd., priority 2022, published 2025)
pIC50: −log10 of the molar value.

Molecular target: HPK1 (Homo sapiens (Human), UniProt Q92918)
Test: HPK1 Inhibition Assay (ADP-Glo kinase assay)
Type: biochemical
Details: ATP 10 μM
Method in brief: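 ADP-Glo luminescence read-out after 1 h room-temperature kinase reaction with 10 μM ATP and 0.1 μg/ml MBP. Recombinant human HPK1 at 7.5 ng/μl; buffer 40 mM Tris pH 7.5, 20 mM MgCl2. Compounds serially diluted 5-fold over 10 points from 10 mM DMSO stock.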

Chain of HPK1 (Q92918 1-346 limits assumed): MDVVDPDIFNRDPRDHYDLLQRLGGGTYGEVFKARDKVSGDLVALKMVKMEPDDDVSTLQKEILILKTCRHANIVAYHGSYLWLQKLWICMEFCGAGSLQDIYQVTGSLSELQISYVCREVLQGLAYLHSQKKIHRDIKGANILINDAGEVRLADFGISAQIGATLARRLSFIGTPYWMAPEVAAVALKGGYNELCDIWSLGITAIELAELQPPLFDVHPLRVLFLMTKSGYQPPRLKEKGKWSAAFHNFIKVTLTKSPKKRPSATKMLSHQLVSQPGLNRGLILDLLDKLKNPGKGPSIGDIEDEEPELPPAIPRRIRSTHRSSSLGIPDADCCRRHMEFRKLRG

SMILES	pIC50
[2H]C([2H])([2H])C(n1ncc2c(N3C[C@H](N)C(C)(C)C3)c(NC(=O)c3ccc(=O)n(-c4c(F)cccc4F)n3)ccc21)C([2H])([2H])[2H] [Example 279, (R)-N-(4-(4-amino-3,3-dimethylpyrrolidin-1-yl)-1-(propan-2-yl-1,1,1,3,3,3-d6)-1H-indazol-5-yl)-1-(2,6-difluorophenyl)-6-oxo-1,6-dihydropyridazine-3-carboxamide]	> 7.00
[2H]C([2H])([2H])C(n1ncc2c(N3C[C@@H](N)C(C)(C)C3)c(NC(=O)c3ccc(=O)n(-c4c(F)cccc4F)n3)ccc21)C([2H])([2H])[2H] [Example 280, (S)-N-(4-(4-amino-3,3-dimethylpyrrolidin-1-yl)-1-(propan-2-yl-1,1,1,3,3,3-d6)-1H-indazol-5-yl)-1-(2,6-difluorophenyl)-6-oxo-1,6-dihydropyridazine-3-carboxamide]	> 7.00
[2H]C([2H])([2H])C([2H])(n1ncc2c(N3C[C@H](N)C(C)(C)C3)c(NC(=O)c3ccc(=O)n(-c4c(F)cccc4F)n3)ccc21)C([2H])([2H])[2H] [Example 281, (R)-N-(4-(4-amino-3,3-dimethylpyrrolidin-1-yl)-1-(propan-2-yl-d7)-1H-indazol-5-yl)-1-(2,6-difluorophenyl)-6-oxo-1,6-dihydropyridazine-3-carboxamide]	> 7.00
[2H]C([2H])([2H])C([2H])(n1ncc2c(N3C[C@@H](N)C(C)(C)C3)c(NC(=O)c3ccc(=O)n(-c4c(F)cccc4F)n3)ccc21)C([2H])([2H])[2H] [Example 282, (S)-N-(4-(4-amino-3,3-dimethylpyrrolidin-1-yl)-1-(propan-2-yl-d7)-1H-indaozl-5-yl)-1-(2,6-difluorophenyl)-6-oxo-1,6-dihydropyridazine-3-carboxamide]	> 7.00
COCCn1ncc2c(N3C[C@@H](C)[C@@H](N)C3)c(NC(=O)c3ccc(=O)n(-c4c(F)cccc4F)n3)ccc21 [Example 283, N-(4-((3R,4R)-3-amino-4-methylpyrrolidin-1-yl)-1-(2-methoxyethyl)-1H-indazol-5-yl)-1-(2,6-difluorophenyl)-6-oxo-1,6-dihydropyridazine-3-carboxamide]	> 7.00
COCCn1ncc2c(N3CCC(N)CC3)c(NC(=O)c3ccc(=O)n(-c4c(F)cccc4F)n3)cc(F)c21 [Example 284, N-(4-(4-aminopiperidin-1-yl)-7-fluoro-1-(2-methoxyethyl)-1H-indazol-5-yl)-1-(2,6-difluorophenyl)-6-oxo-1,6-dihydropyridazine-3-carboxamide]	> 7.00
COCCn1ncc2c(N3CC[C@@H](N)C3)c(NC(=O)c3ccc(=O)n(-c4c(F)cccc4F)n3)ccc21 [Example 285, (R)-N-(4-(3-aminopyrrolidin-1-yl)-1-(2-methoxyethyl)-1H-indazol-5-yl)-1-(2,6-difluorophenyl)-6-oxo-1,6-dihydropyridazine-3-carboxamide]	> 7.00
COCCn1ncc2c(N3CCC[C@@H](N)C3)c(NC(=O)c3ccc(=O)n(-c4c(F)cccc4F)n3)cc(F)c21 [Example 286, (R)-N-(4-(3-aminopiperidin-1-yl)-7-fluoro-1-(2-methoxyethyl)-1H-indazol-5-yl)-1-(2,6-difluorophenyl)-6-oxo-1,6-dihydropyridazine-3-carboxamide]	> 7.00
N[C@@H]1CCN(c2c(NC(=O)c3ccc(=O)n(-c4c(F)cccc4F)n3)ccc3c2cnn3C2CCCC2)C1 [Example 287, (R)-N-(4-(3-aminopyrrolidin-1-yl)-1-cyclopentyl-1H-indazol-5-yl)-1-(2,6-difluorophenyl)-6-oxo-1,6-dihydropyridazine-3-carboxamide]	> 7.00
C[C@@H]1CN(c2c(NC(=O)c3ccc(=O)n(-c4c(F)cccc4F)n3)ccc3c2cnn3C2CCCC2)C[C@@H]1N [Example 288, N-(4-((3R,4R)-3-amino-4-methylpyrrolidin-1-yl)-1-cyclopentyl-1H-indazol-5-yl)-1-(2,6-difluorophenyl)-6-oxo-1,6-dihydropyridazine-3-carboxamide34]	> 7.00
CCn1ncc2c(N3CC[C@@H](N)C3)c(NC(=O)c3ccc(=O)n(-c4c(F)cccc4F)n3)cc(F)c21 [Example 289, (R)-N-(4-(3-aminopyrrolidin-1-yl)-1-ethyl-7-fluoro-1H-indazol-5-yl)-1-(2,6-difluorophenyl)-6-oxo-1,6-dihydropyridazine-3-carboxamide]	> 7.00
N[C@@H]1CCN(c2c(NC(=O)c3ccc(=O)n(-c4c(F)cccc4F)n3)ccc3c2cnn3CC(F)(F)F)C1 [Example 290, (R)-N-(4-(3-aminopyrrolidin-1-yl)-1-(2,2,2-trifluoroethyl)-1H-indazol-5-yl)-1-(2,6-difluorophenyl)-6-oxo-1,6-dihydropyridazine-3-carboxamide]	> 7.00
C[C@@H]1CN(c2c(NC(=O)c3ccc(=O)n(-c4c(F)cccc4F)n3)ccc3c2cnn3CC(F)(F)F)C[C@@H]1N [Example 291, N-(4-((3R,4R)-3-amino-4-methylpyrrolidin-1-yl)-1-(2,2,2-trifluoroethyl)-1H-indazol-5-yl)-1-(2,6-difluorophenyl)-6-oxo-1,6-dihydropyridazine-3-carboxamide]	> 7.00
CCn1ncc2c(N3CC[C@@H](N)C3)c(NC(=O)c3ccc(=O)n(-c4c(F)cccc4F)n3)ccc21 [Example 292, (R)-N-(4-(3-aminopyrrolidin-1-yl)-1-ethyl-1H-indazol-5-yl)-1-(2,6-difluorophenyl)-6-oxo-1,6-dihydropyridazine-3-carboxamide]	> 7.00
COCCn1ncc2c(N3CC[C@@H](N)C3)c(NC(=O)c3ccc(=O)n(-c4c(F)cccc4F)n3)cc(F)c21 [Example 293, (R)-N-(4-(3-aminopyrrolidin-1-yl)-7-fluoro-1-(2-methoxyethyl)-1H-indazol-5-yl)-1-(2,6-difluorophenyl)-6-oxo-1,6-dihydropyridazine-3-carboxamide]	> 7.00
CC(C)Cn1ncc2c(N3CC[C@@H](N)C3)c(NC(=O)c3ccc(=O)n(-c4c(F)cccc4F)n3)ccc21 [Example 294, (R)-N-(4-(3-aminopyrrolidin-1-yl)-1-isobutyl-1H-indazol-5-yl)-1-(2,6-difluorophenyl)-6-oxo-1,6-dihydropyridazine-3-carboxamide]	> 7.00
N[C@@H]1CCN(c2c(NC(=O)c3ccc(=O)n(-c4c(F)cccc4F)n3)ccc3c2cnn3CC2CC2)C1 [Example 295, (R)-N-(4-(3-aminopyrrolidin-1-yl)-1-(cyclopropylmethyl)-1H-indazol-5-yl)-1-(2,6-difluorophenyl)-6-oxo-1,6-dihydropyridazine-3-carboxamide]	> 7.00
C[C@@H]1CN(c2c(NC(=O)c3ccc(=O)n(-c4c(F)cccc4F)n3)ccc3c2cnn3C2CCC2)C[C@@H]1N [Example 296, N-(4-((3R,4R)-3-amino-4-methylpyrrolidin-1-yl)-1-cyclobutyl-1H-indazol-5-yl)-1-(2,6-difluorophenyl)-6-oxo-1,6-dihydropyridazine-3-carboxamide]	> 7.00
C[C@@H]1CN(c2c(NC(=O)c3ccc(=O)n(-c4c(F)cccc4F)n3)ccc3c2cnn3C2CCCCC2)C[C@@H]1N [Example 297, N-(4-((3R,4R)-3-amino-4-methylpyrrolidin-1-yl)-1-cyclohexyl-1H-indazol-5-yl)-1-(2,6-difluorophenyl)-6-oxo-1,6-dihydropyridazine-3-carboxamide]	> 7.00
C[C@@H]1CN(c2c(NC(=O)c3ccc(=O)n(-c4c(F)cccc4F)n3)ccc3c2cnn3C2CC2)C[C@@H]1N [Example 298, N-[4-[(3R,4R)-3-amino-4-methyl-pyrrolidin-1-yl]-1-cyclopropyl-indazol-5-yl]-1-(2,6-difluorophenyl)-6-oxo-pyridazine-3-carboxamide]	> 7.00
C[C@H]1CN(c2c(NC(=O)c3ccc(=O)n(-c4c(F)cccc4F)n3)ccc3c2cnn3C2CC2)C[C@@H]1N [Example 299, N-(4-((3R,4S)-3-amino-4-methylpyrrolidin-1-yl)-1-cyclopropyl-1H-indazol-5-yl)-1-(2,6-difluorophenyl)-6-oxo-1,6-dihydropyridazine-3-carboxamide]	> 7.00
N[C@H]1CN(c2c(NC(=O)c3ccc(=O)n(-c4c(F)cccc4F)n3)ccc3c2cnn3C2CC2)CC12CC2 [Example 300, (R)-N-(4-(7-amino-5-azaspiro[2.4]heptan-5-yl)-1-cyclopropyl-1H-indazol-5-yl)-1-(2,6-difluorophenyl)-6-oxo-1,6-dihydropyridazine-3-carboxamide]	> 7.00
N[C@@H]1CCN(c2c(NC(=O)c3ccc(=O)n(-c4c(F)cccc4F)n3)ccc3c2cnn3C2CC2)C1 [Example 301, (R)-N-(4-(3-aminopyrrolidin-1-yl)-1-cyclopropyl-1H-indazol-5-yl)-1-(2,6-difluorophenyl)-6-oxo-1,6-dihydropyridazine-3-carboxamide]	> 7.00
CC(C)(C)n1ncc2c(N3C[C@H](N)C4(CC4)C3)c(NC(=O)c3ccc(=O)n(-c4c(F)cccc4F)n3)ccc21 [Example 302, N-[4-[(7R)-7-amino-5-azaspiro[2.4]heptan-5-yl]-1-tert-butyl-indazol-5-yl]-1-(2,6-difluorophenyl)-6-oxo-pyridazine-3-carboxamide]	> 7.00
C[C@@H]1CN(c2c(NC(=O)c3ccc(=O)n(-c4c(F)cccc4F)n3)ccc3c2cnn3C(C)(C)C)C[C@@H]1N [Example 303, N-(4-((3R,4R)-3-amino-4-methylpyrrolidin-1-yl)-1-(tert-butyl)-1H-indazol-5-yl)-1-(2,6-difluorophenyl)-6-oxo-1,6-dihydropyridazine-3-carboxamide]	> 7.00
C[C@@H]1CN(c2c(NC(=O)c3ccc(=O)n(-c4c(F)cccc4F)n3)ccc3nn(C45CCC(CC4)CC5)cc23)C[C@@H]1N [Example 304, N-(4-((3R,4R)-3-amino-4-methylpyrrolidin-1-yl)-2-(bicyclo[2.2.2]octan-1-yl)-2H-indazol-5-yl)-1-(2,6-difluorophenyl)-6-oxo-1,6-dihydropyridazine-3-carboxamide]	> 7.00
